For one assay, the system named is stem cells. The assay can be described thus: tritiated thymidine labeling of stem cells (murine skin explants; label retaining cells in mice). Type of assay: cell-based, mouse. An excerpt:
The effectiveness of stimulant of stem cells can be readily evaluated using the technique of tritiated thymidine labeling. We studied the effectiveness of the invention on stimulation of stem cell populations by using the technique of tritiated thymidine labeling of stem cells. The effects of compositions described here were studied on explants of murine skin. Explant cultures were serially harvested at daily intervals for the first 4 days of exposure, and composition effects on ^3H-TdR (tritiated thymidine) incorporation assessed in accordance with standard techniques. Because of the slow- cycling nature of stem cells, repeated administration of tritiated thymidine is necessary. After the labeling, the cells are chased for four weeks wherein the stem cells retain the label longer and are thus quantitated comparatively to control.
In another series of experiments, a cohort of mice was continuously labeled for 2 weeks with ^3H- TdR and then allowed to rest for 4 weeks. Once labeled, cells that cycle slowly retained isotopes for an extended period of time. Twice daily, subcutaneous injections of ^3H-TdR were given to newborn mice over the first seven days of life resulting in the labeling of almost 100% of nuclei in mouse epidermis, hair follicles, sebaceous glands, fibroblasts, and endothelial cells. […]

Assay [1] relates to hair growth on scalp of subjects with baldness / hair loss. The assay can be described thus: compositions tested in humans (topical application to scalp). The conditions noted are these: summary statement; animals and humans / applied directly to scalp. Type of assay: in vivo, human. The protocol:
The composition is applied to scalp ideally after thoroughly cleansing hair with soap and water to remove as much sebaceous secretions as possible. Sufficient quantity of the composition is applied to balding areas of scalp repeatedly, 1-2 times per day and applications continued for several days or weeks. It may be necessary, as it has been observed, to repeat the application frequently to keep the new follicular growth and to initiate further growth.
Finally, the compositions were tested in humans. Ten subjects with advanced male pattern baldness used test preparation #1 and #2 (five subjects each) as described above for a period of three weeks. […] Three female subjects with thinning hair used composition #3 and #4 for a period of five weeks daily.

For the compound `CC[C@H](CC[C@@H](C)[C@H]1CC[C@H]2[C@@H]3CC=C4C[C@@H](O)CC[C@]4(C)[C@H]3CC[C@]12C)C(C)C` [β-sitosterol], the “activity of stem cells and/or bulge cells responsible for growth of hair” value in the assay with stem cells was “significantly enhances”. In addition, in assay [1], the growth of hair result is “enhance growth of hair”.

The record behind these values is patent publication US20020183297A1, “Pharmaceutical composition for the treatment of alopecia” (priority 2001, published 2002).
